Data: the supplement of paper PMC11368000

Columns and labels:
Conditions in all cases: exposure time: 90 min
[1] = test system: 11235 (donor line of iPSC-derived cardiomyocytes); experiment: POD (EC05) for increase in beat frequency (positive chronotrope) vs vehicle; higher = less potent (higher point of departure)
Description: (§1)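 Human iPSC-derived cardiomyocytes from 16 donors were exposed for 90 min at 37 °C to each PFAS at 0.1, 1, 10 and 100 µM in 0.5% DMSO, 384-well plates. Kinetic Ca2+ flux (FLIPR) and Hoechst nuclei counts were normalised to vehicle wells and fitted with a hierarchical Bayesian Hill model to give donor-specific PODs: EC05 for beat-rate increase or decrease and for decay-to-rise ratio increase (QT proxy), EC95 for peak-frequency loss (asystole), EC10 for total cell number loss. 0.03 µM is the lower bound.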

[2] = test system: 1518 (donor line of iPSC-derived cardiomyocytes); experiment: as above
Description: as §1

[3] = test system: 1392 (donor line of iPSC-derived cardiomyocytes); experiment: as above
Description: as §1

[4] = test system: 30171 (donor line of iPSC-derived cardiomyocytes); experiment: as above
Description: as §1

[5] = test system: 1309 (donor line of iPSC-derived cardiomyocytes); experiment: as above
Description: as §1

[6] = test system: 20032 (donor line of iPSC-derived cardiomyocytes); experiment: as above
Description: as §1

[7] = test system: 1516 (donor line of iPSC-derived cardiomyocytes); experiment: as above
Description: as §1

[8] = test system: 1434 (donor line of iPSC-derived cardiomyocytes); experiment: as above
Description: as §1

[9] = test system: 1118 (donor line of iPSC-derived cardiomyocytes); experiment: as above
Description: as §1

[10] = test system: 1368 (donor line of iPSC-derived cardiomyocytes); experiment: as above
Description: as §1

[11] = test system: 1565 (donor line of iPSC-derived cardiomyocytes); experiment: as above
Description: as §1

[12] = test system: 20084 (donor line of iPSC-derived cardiomyocytes); experiment: as above
Description: as §1

[13] = test system: 1083 (donor line of iPSC-derived cardiomyocytes); experiment: as above
Description: as §1

[14] = test system: 1535 (donor line of iPSC-derived cardiomyocytes); experiment: as above
Description: as §1

[15] = test system: 1531 (donor line of iPSC-derived cardiomyocytes); experiment: as above
Description: as §1

[16] = test system: 1518; experiment: POD (EC05) for decrease in beat frequency (negative chronotrope) vs vehicle; higher = less potent (higher point of departure)
Description: as §1

[17] = test system: 1392; experiment: as above
Description: as §1

[18] = test system: 1516; experiment: as above
Description: as §1

[19] = test system: 1565; experiment: as above
Description: as §1

[20] = test system: 1535; experiment: as above
Description: as §1

| SMILES | POD vs vehicle [1] | POD vs vehicle [2] | POD vs vehicle [3] | POD vs vehicle [4] | POD vs vehicle [5] | POD vs vehicle [6] | POD vs vehicle [7] | POD vs vehicle [8] | POD vs vehicle [9] | POD vs vehicle [10] | POD vs vehicle [11] | POD vs vehicle [12] | POD vs vehicle [13] | POD vs vehicle [14] | POD vs vehicle [15] | POD vs vehicle [16] | POD vs vehicle [17] | POD vs vehicle [18] | POD vs vehicle [19] | POD vs vehicle [20] |
| --- | --- | --- | --- | --- | --- | --- | --- | --- | --- | --- | --- | --- | --- | --- | --- | --- | --- | --- | --- | --- |
| NC(=O)C(F)(F)C(F)(F)C(F)(F)C(F)(F)C(N)=O [Octafluoroadipamide] | > 100 µM | > 100 µM | > 100 µM | > 100 µM | > 100 µM | > 100 µM | > 100 µM | > 100 µM | > 100 µM | > 100 µM | > 100 µM | > 100 µM | > 100 µM | > 100 µM | > 100 µM | > 100 µM | > 100 µM | > 100 µM | > 100 µM | > 100 µM |
| O=C(O)C(F)(F)C(F)(F)C(F)(F)OC(F)(C(F)(F)F)C(F)(F)F [Perfluoro-4-isopropoxybutanoic_acid] | > 100 µM | > 100 µM | > 100 µM | > 100 µM | > 100 µM | > 100 µM | > 100 µM | > 100 µM | > 100 µM | > 100 µM | > 100 µM | > 100 µM | > 100 µM | > 100 µM | > 100 µM | > 100 µM | > 100 µM | > 100 µM | > 100 µM | > 100 µM |
| O=C(O)C(F)(F)OC(F)(F)C(F)(F)OC(F)(F)C(F)(F)OC(F)(F)C(F)(F)C(F)(F)C(F)(F)F [Perfluoro-3,6,9-trioxatridecanoic_acid] | > 100 µM | > 100 µM | > 100 µM | > 100 µM | > 100 µM | > 100 µM | > 100 µM | > 100 µM | > 100 µM | > 100 µM | > 100 µM | > 100 µM | > 100 µM | > 100 µM | > 100 µM | > 100 µM | > 100 µM | 22.2 µM | > 100 µM | 79.4 µM |
| O=C(O)C(F)(F)C(F)(F)C(F)(F)C(F)(F)C(F)(F)C(F)(F)F [Perfluoroheptanoic_acid] | > 100 µM | > 100 µM | > 100 µM | > 100 µM | > 100 µM | > 100 µM | > 100 µM | > 100 µM | > 100 µM | > 100 µM | > 100 µM | > 100 µM | > 100 µM | > 100 µM | > 100 µM | > 100 µM | > 100 µM | 68.1 µM | > 100 µM | > 100 µM |
| O=S(=O)(O)CCC(F)(F)C(F)(F)C(F)(F)C(F)(F)F [4:2 Fluorotelomer sulfonic acid] | > 100 µM | > 100 µM | > 100 µM | > 100 µM | > 100 µM | > 100 µM | > 100 µM | > 100 µM | > 100 µM | > 100 µM | > 100 µM | > 100 µM | > 100 µM | > 100 µM | > 100 µM | > 100 µM | > 100 µM | > 100 µM | > 100 µM | > 100 µM |
| O=C(O)C(F)(F)C(F)(F)C(F)(F)C(F)(F)C(F)(F)C(F)(F)C(F)(F)F [Perfluorooctanoic_acid] | > 100 µM | > 100 µM | > 100 µM | > 100 µM | > 100 µM | > 100 µM | > 100 µM | > 100 µM | > 100 µM | > 100 µM | > 100 µM | > 100 µM | > 100 µM | > 100 µM | > 100 µM | 92.7 µM | > 100 µM | 9 µM | > 100 µM | 41.8 µM |
| O=C(O)CCC(F)(F)C(F)(F)C(F)(F)C(F)(F)C(F)(F)F [2H,2H,3H,3H-Perfluorooctanoic_acid] | > 100 µM | > 100 µM | > 100 µM | > 100 µM | > 100 µM | > 100 µM | > 100 µM | > 100 µM | > 100 µM | > 100 µM | > 100 µM | > 100 µM | > 100 µM | > 100 µM | > 100 µM | > 100 µM | 20.4 µM | 21.1 µM | > 100 µM | 75.1 µM |
| O=S(=O)(O)C(F)(F)C(F)(F)C(F)(F)C(F)(F)F [Perfluorobutanesulfonic_acid] | > 100 µM | > 100 µM | > 100 µM | > 100 µM | > 100 µM | > 100 µM | > 100 µM | > 100 µM | > 100 µM | > 100 µM | > 100 µM | > 100 µM | – | > 100 µM | > 100 µM | > 100 µM | > 100 µM | 29.7 µM | > 100 µM | > 100 µM |
| OCCC(F)(F)C(F)(F)C(F)(F)C(F)(F)F [4:2 Fluorotelomer alcohol] | > 100 µM | > 100 µM | > 100 µM | > 100 µM | > 100 µM | > 100 µM | > 100 µM | > 100 µM | > 100 µM | > 100 µM | > 100 µM | > 100 µM | > 100 µM | > 100 µM | > 100 µM | > 100 µM | > 100 µM | > 100 µM | > 100 µM | > 100 µM |
